For assay [1], the target named is T1, Recombinant (1-346) HPK1 (h) (Homo sapiens, UniProt Q92918).
T1 construct: Recombinant (1-346) HPK1 (h) is incubated with 8 mM MOPS pH 7.0
T1 sequence (Q92918 1-346): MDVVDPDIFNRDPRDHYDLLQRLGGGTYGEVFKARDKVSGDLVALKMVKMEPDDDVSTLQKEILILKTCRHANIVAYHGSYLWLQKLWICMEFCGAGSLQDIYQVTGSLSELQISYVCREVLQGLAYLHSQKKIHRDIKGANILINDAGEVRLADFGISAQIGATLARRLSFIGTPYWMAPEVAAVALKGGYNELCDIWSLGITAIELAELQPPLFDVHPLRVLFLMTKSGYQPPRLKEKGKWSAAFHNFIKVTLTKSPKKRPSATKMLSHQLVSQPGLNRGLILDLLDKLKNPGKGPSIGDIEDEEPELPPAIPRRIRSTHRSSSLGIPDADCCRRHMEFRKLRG
Briefly: HPK1 Human STE Kinase Enzymatic Radiometric Assay. It counts as biochemical. Particulars: read-out: HPK1 IC50 nM Range*. As to the method:
A stock solution of 10 mM of test compound is prepared in DMSO. The compound plate was prepared by 3-fold and 9-point serial dilutions. […] The reaction is initiated by The addition of the Mg/ATP mix. After incubation for 40 minutes at RT, the reaction is stopped by the addition of phosphoric acid to a concentration of 0.5%.

The next assay deals with Lck (h) (Homo sapiens, UniProt P06239). Briefly: Lck Human  Kinase Enzymatic Radiometric Assay. The format is biochemical. Particulars: read-out: Lck IC50 nM Range*. The essentials: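 Substrate 33P-incorporation measured by scintillation counting after spotting on P30 filtermat and phosphoric acid washes. Human Lck reacted 40 min at RT in 50 mM Tris pH 7.5 with 10 mM MgAcetate, [gamma-33P]-ATP, 250 uM Cdc2 peptide, 0.1 mM EGTA and 0.1 mM Na3VO4.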
Sequence of Lck (h) (P06239 whole entry): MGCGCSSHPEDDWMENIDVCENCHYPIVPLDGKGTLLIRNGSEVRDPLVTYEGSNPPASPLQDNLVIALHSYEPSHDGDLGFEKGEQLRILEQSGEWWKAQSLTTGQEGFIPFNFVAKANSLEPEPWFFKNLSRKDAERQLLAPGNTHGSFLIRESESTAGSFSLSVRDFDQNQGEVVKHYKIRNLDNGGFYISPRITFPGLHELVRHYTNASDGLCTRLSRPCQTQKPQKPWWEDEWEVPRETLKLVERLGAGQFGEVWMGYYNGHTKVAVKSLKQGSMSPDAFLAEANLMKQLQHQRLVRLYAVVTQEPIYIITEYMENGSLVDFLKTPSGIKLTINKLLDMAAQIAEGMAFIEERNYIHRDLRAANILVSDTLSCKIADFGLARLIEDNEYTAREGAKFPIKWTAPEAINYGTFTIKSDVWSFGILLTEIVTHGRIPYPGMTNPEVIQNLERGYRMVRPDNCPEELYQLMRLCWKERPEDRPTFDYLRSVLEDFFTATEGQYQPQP

Turning to `CC(C)N1CCC(c2ccc(-c3cc(-c4cc(F)c5c(c4)CCNC5=O)c(N)nc3F)cc2)CC1` [I-302, 6-(2-amino-6-fluoro-5-(4-(1-isopropylpiperidin-4-yl)phenyl)pyridin-3-yl)-8-fluoro-3,4-dihydroisoquinolin-1(2H)-one], the IC50 in assay [1] lay within 0.1 to 10 nM; on Lck (h), 101 to 1000 nM.

`Nc1nc(F)c(-c2ccc([C@@]34C[C@@H]3CN(C3CCOCC3)C4)cc2)cc1-c1ccc2c(c1)CCNC2=O` [I-66, 6-(2-amino-6-fluoro-5-(4-((1R,5S)-3-(tetrahydro-2H-pyran-4-yl)-3-azabicyclo[3.1.0]hexan-1-yl)phenyl)pyridin-3-yl)-3,4-dihydroisoquinolin-1(2H)-one]: the IC50 is 0.1 to 10 nM in assay [1] and above 1000 nM at Lck (h).

Regarding `Nc1nc(F)c(-c2ccc(N3CC[C@H](F)C3)cc2)cc1-c1ccc2c(c1)CCNC2=O` [I-113, (S)-6-(2-amino-6-fluoro-5-(4-(3-fluoropyrrolidin-1-yl)phenyl)pyridin-3-yl)-3,4-dihydroisoquinolin-1(2H)-one], the IC50 in assay [1] was 11 to 100 nM; on Lck (h), above 1000 nM.

As to `COCCN1CCC(c2ccc(-c3cc(-c4cc5c(cc4F)C(=O)NCC5)c(N)nc3F)cc2)CC1` [I-241, 6-(2-amino-6-fluoro-5-(4-(1-(2-methoxyethyl)piperidin-4-yl)phenyl)pyridin-3-yl)-7-fluoro-3,4-dihydroisoquinolin-1(2H)-one], the IC50 in assay [1] is 0.1 to 10 nM; on Lck (h) it was above 1000 nM.

For `Nc1nc(F)c(-c2ccc3c(c2)CCC2(CCN(CC(F)(F)F)CC2)O3)cc1-c1ccc2c(c1)CCNC2=O` [I-197, 6-(2-amino-6-fluoro-5-(1′-(2,2,2-trifluoroethyl)spiro[chromane-2,4′-piperidin]-6-yl)pyridin-3-yl)-3,4-dihydroisoquinolin-1(2H)-one], the IC50 in assay [1] was 11 to 100 nM; at Lck (h) it was above 1000 nM.

In the case of `Nc1nc(F)c(-c2ccc(N3CCN4CCOC[C@H]4C3)cc2)cc1-c1ccc2c(c1)CCNC2=O` [I-38, (R)-6-(2-amino-6-fluoro-5-(4-(hexahydropyrazino[2,1-c][1,4]oxazin-8(1H)-yl)phenyl)pyridin-3-yl)-3,4-dihydroisoquinolin-1(2H)-one], the half-maximal inhibitory concentration (IC50) in assay [1] was 0.1 to 10 nM; at Lck (h) it was above 1000 nM.

Consider `CC(=O)N1CCC(Oc2ccc(-c3cc(-c4ccc5c(c4)CCNC5=O)c(N)nc3F)cc2C#N)CC1` [I-194, 2-((1-acetylpiperidin-4-yl)oxy)-5-(6-amino-2-fluoro-5-(1-oxo-1,2,3,4-tetrahydroisoquinolin-6-yl)pyridin-3-yl)benzonitrile], for which the results for the half-inhibitory concentration (IC50) (in assay [1]; on Lck (h)) were 0.1 to 10 nM and above 1000 nM, respectively.

With `Nc1cc2cc(-c3cc(-c4ccc5c(c4)CCNC5=O)c(N)nc3F)c(F)c(Cl)c2cn1` [I-227, 6-(2-amino-5-(3-amino-8-chloro-7-fluoroisoquinolin-6-yl)-6-fluoropyridin-3-yl)-3,4-dihydroisoquinolin-1(2H)-one], the IC50 in assay [1] is 11 to 100 nM; at Lck (h) it was above 1000 nM.

For `CC(C)[C@@H]1CN(c2ccc(-c3cc(-c4ccc5c(c4)CCNC5=O)c(N)nc3F)cc2)CCO1` [I-9, (R)-6-(2-amino-6-fluoro-5-(4-(2-isopropylmorpholino)phenyl)pyridin-3-yl)-3,4-dihydroisoquinolin-1(2H)-one], the IC50 is 0.1 to 10 nM in assay [1] and above 1000 nM on Lck (h).

For `Nc1nc(F)c(-c2ccc(S(=O)(=O)N3CCOCC3)cc2)cc1-c1ccc2c(c1)CCNC2=O` [I-98, 6-(2-amino-6-fluoro-5-(4-(morpholinosulfonyl)phenyl)pyridin-3-yl)-3,4-dihydroisoquinolin-1(2H)-one], the results for the IC50 (in assay [1]; on Lck (h)) were 11 to 100 nM and above 1000 nM, respectively.

As to `CC1(C)CC(Oc2ccc(-c3cc(-c4ccc5c(c4)CCNC5=O)c(N)nc3F)cc2)CCN1` (stereo not shown) [I-147, 6-(2-amino-5-(4-((2,2-dimethylpiperidin-4-yl)oxy)phenyl)-6-fluoropyridin-3-yl)-3,4-dihydroisoquinolin-1(2H)-one], the figures for the concentration for half-maximal inhibition (IC50) (in assay [1]; on Lck (h)) were 0.1 to 10 nM and above 1000 nM, respectively.

Turning to `CC(C)N1CCC2(CC1)CC(=O)c1cc(-c3cc(-c4ccc5c(c4)CCNC5=O)c(N)nc3F)ccc1O2` [I-222, 6-(6-amino-2-fluoro-5-(1-oxo-1,2,3,4-tetrahydroisoquinolin-6-yl)pyridin-3-yl)-1′-isopropylspiro[chromane-2,4′-piperidin]-4-one], the concentration for half-maximal inhibition (IC50) in assay [1] was 0.1 to 10 nM; on Lck (h), above 1000 nM.

Regarding `CN1CCN(c2ccc(-c3cc(-c4ccc5c(c4)C(C)(C)NC5=O)c(N)nc3F)cc2)CC1` [I-33, 5-(2-amino-6-fluoro-5-(4-(4-Methylpiperazin-1-yl)phenyl)pyridin-3-yl)-3,3-dimethylisoindolin-1-one], the IC50 was 0.1 to 10 nM in assay [1] and above 1000 nM at Lck (h).

On to `Nc1nc(Cl)c(-c2ccc(N3CCN(CC(F)F)CC3)cc2)cc1-c1ccc2c(c1)CCNC2=O` [I-168, 6-(2-amino-6-chloro-5-(4-(4-(2,2-difluoroethyl)piperazin-1-yl)phenyl)pyridin-3-yl)-3,4-dihydroisoquinolin-1(2H)-one], for which the IC50 in assay [1] was 11 to 100 nM; on Lck (h) it was above 1000 nM.

Regarding `CN1CCC(n2cc(-c3cc(-c4cc5c(cc4F)C(=O)NCC5)c(N)nc3F)cn2)CC1` [I-129, 6-(2-amino-6-fluoro-5-(1-(1-methylpiperidin-4-yl)-1H-pyrazol-4-yl)pyridin-3-yl)-7-fluoro-3,4-dihydroisoquinolin-1(2H)-one], the concentration for half-maximal inhibition (IC50) in assay [1] is 0.1 to 10 nM; at Lck (h), 101 to 1000 nM.

Take `COCCN1CCC(OC)(c2ccc(-c3cc(-c4ccc5c(c4)CCNC5=O)c(N)nc3F)cc2)CC1` [I-208, 6-(2-amino-6-fluoro-5-(4-(4-methoxy-1-(2-methoxyethyl)piperidin-4-yl)phenyl)pyridin-3-yl)-3,4-dihydroisoquinolin-1(2H)-one]: the IC50 is 0.1 to 10 nM in assay [1] and above 1000 nM on Lck (h).

For `CN1CCN(c2ccc(-c3cc(-c4ccc5c(c4)CNC5=O)c(N)nc3F)cc2)CC1` [I-32, 5-(2-amino-6-fluoro-5-(4-(4-methylpiperazin-1-yl)phenyl)pyridin-3-yl)isoindolin-1-one], the IC50 is 11 to 100 nM in assay [1] and above 1000 nM at Lck (h).

`CC(C)N1CCN(c2ccc(-c3cc(-c4cc(F)c5c(=O)[nH]ccc5c4)c(N)nc3F)cc2)CC1` [I-372, 6-(2-amino-6-fluoro-5-(4-(4-isopropylpiperazin-1-yl)phenyl)pyridin-3-yl)-8-fluoroisoquinolin-1(2H)-one]: the IC50 in assay [1] lay in the range of 0.1 to 10 nM; on Lck (h) it was 101 to 1000 nM.

Consider `CC(C)[C@@H]1CN(c2ccc(-c3cc(-c4cc(F)c5c(c4)CCNC5=O)c(N)nc3F)cc2)CCO1` [I-351, (R)-6-(2-amino-6-fluoro-5-(4-(2-isopropylmorpholino)phenyl)pyridin-3-yl)-8-fluoro-3,4-dihydroisoquinolin-1(2H)-one], for which the IC50 in assay [1] was 0.1 to 10 nM; at Lck (h), above 1000 nM.

On to `CC(C)[C@H]1CN(c2ccc(-c3cc(-c4cc5c(cn4)C(=O)NCC5)c(N)nc3F)cc2)CCO1` [I-77, (S)-6-(2-amino-6-fluoro-5-(4-(2-isopropylmorpholino)phenyl)pyridin-3-yl)-3,4-dihydro-2,7-naphthyridin-1(2H)-one 2,2,2-trifluoroacetate], for which the IC50 in assay [1] was 0.1 to 10 nM; on Lck (h) it was above 1000 nM.

For the origin of these results see patent publication US20240343704A1, “HALO-SUBSTITUTED AMINO PYRIDINE COMPOUNDS AS INHIBITORS OF THE HAEMATOPOIETIC PROGENITOR KINASE 1 (HPK1)” (priority 2021, published 2024).
